Assay results: patent publication US5200424A, “Use of 10-membered ring lactones as lipid regulators” (priority 1990, dated 1993)

Columns and labels:
[1] = Body weight, relative liver weight and feed consumption in rats; assay type: in vivo, Rat, male, strain: HOE WISKf (SPF 71); conditions: for % Change from control, Body weight after / % Change from control, rel. feed consumption after: male rat, after treatment
Experimental: (§1) Male rats with an initial weight above 180 g received the test product of the formula I in polyethylene glycol 400 by gavage once a day (in the morning) (0.5 ml/100 g of body weight); the relevant control group received only the same amount of solvent. The last (7th) administration took place 24 hours before blood sampling and sacrifice. There was free access to feed and water during the test. Feed was withdrawn 24 hours before the retroorbital blood sampling, which took place under light ether anesthesia before and after the treatment period (that is to say on the 1st and 8th day). Serum glutamic-oxalate transaminase (SGOT), serum glutamic-pyruvic transaminase (SGPT), alkaline phosphatase (aP), bilirubin and creatinine were determined in the serum of each individual animal. The total glycerol was measured from the pooled serum of all animals in a group as measure of the triglycerides (Eggstein, M. Kreutz, F. H.: Klin. Wschr. 44, 262 and 267 (1966); Wahlefeld, A. W., in: H. O. Bergmeier: Methoden der enzymatischen Analyse (Methods of enzymatic analysis), 2nd Edition, Volume II, Verlag Chemie 1974, Page 1878). Immediately after the blood sampling the animals were sacrificed by distortion of the spinal column. The livers were removed, and the relative liver weight was determined. In addition, the body weight gain and the feed consumption were investigated. The statistical analysis was carried out by Student's t test.

serum lipoproteins = assay: Lipoprotein fractionation by ultracentrifugation in rats (serum cholesterol, protein, triglycerides; hypolipemic effect); assay type: in vivo, Rat, male, strain: HOE WISKf (SPF 71); conditions: for % Change compared with control, Protein LDL / % Change compared with control, Protein VLDL / % Change compared with control, Total cholesterol HDL / % Change compared with control, Total cholesterol LDL / % Change compared with control, Total cholesterol VLDL / % Change compared with control, Triglycerides VLDL / Cholesterol HDL/LDL Based on control / Cholesterol HDL/LDL: male rat, by gavage; for % Change compared with control, Protein LDL / % Change compared with control, Protein VLDL / % Change compared with control, Total cholesterol HDL / % Change compared with control, Total cholesterol LDL / % Change compared with control, Total cholesterol VLDL / % Change compared with control, Triglycerides VLDL: 7 administrations; for Cholesterol HDL/LDL Based on control: control 1.00; for Cholesterol HDL/LDL: control 3.75
Experimental: as §1, with “The total glycerol was measured from the pooled serum of all animals in a group as measure of the triglycerides (Eggstein, M. Kreutz, F. H.: Klin. Wschr. 44, 262 and 267 (1966); Wahlefeld, A. W., in: H. O. Bergmeier: Methoden der enzymatischen Analyse (Methods of enzymatic analysis), 2nd Edition, Volume II, Verlag Chemie 1974, Page 1878).” left out
To analyze the serum lipoproteins, after the treatment period the serum of all rats in a group was pooled.

[2] = test system: cholesterol biosynthesis in HEP-G2 cells; assay: Cholesterol biosynthesis inhibition in HEP-G2 liver cell cultures (14C-acetate); assay type: cell-based; conditions: Homo sapiens, HepG2, standard products, 1 h preincubation, 3 h with (14C)acetate, read-out: IC50, inhibition of cholesterol biosynthesis
Experimental: Monolayers of HEP-G2 cells in liproprotein-free nutrient medium are preincubated with appropriate concentrations of the substances of the formula I to be tested for one hour. After addition of the […] biosynthesis precursor sodium (^14 C)acetate the incubation is continued for 3 hours. After this a portion of the cells is subjected to alkaline hydrolysis after addition of an internal standard of ^3 H-cholesterol. The lipids from the hydrolyzed cells are extracted with a chloroform/methanol mixture. This lipid mixture is, after addition of carrier cholesterol, fractionated by preparative thin-layer chromatography, the cholesterol band is stained and then isolated, and the amount of ^14 C-cholesterol formed from the ^14 C-precursor is determined by scintigraphy. Cellular protein was determined in an aliquot of the cells so that the amount of ^14 C-cholesterol formed from ^14 C-precursor per mg of cellular protein per unit time can be calculated. The control is used for comparison for the inhibitory effect of an added test product so that it is possible to state directly the inhibition of the cholesterol biosynthesis at a particular molar concentration of the test product in the medium. The integrity of the cell culture and the absence of cell damage owing to exposure to the product is assessed morphologically (light microscopy) and measured biochemically by determining the lactic dehydrogenase release into the incubation medium on aliquots of the cell culture.

[3] = Serum enzymes, bilirubin and creatinine in rats; assay type: in vivo, Rat, male, strain: HOE WISKf (SPF 71); conditions: for Bilirubin, Final, mean / Creatinine, Final, mean / Serum enzymes SGOT, Final, mean / Serum enzymes SGPT, Final, mean / Serum enzymes aP, Final, mean / Bilirubin, Initial, mean / Creatinine, Initial, mean / Serum enzymes SGOT, Initial, mean / Serum enzymes SGPT, Initial, mean / Serum enzymes aP, Initial, mean: male rat; for Bilirubin, Final, mean / Creatinine, Final, mean / Serum enzymes SGOT, Final, mean / Serum enzymes SGPT, Final, mean / Serum enzymes aP, Final, mean: after treatment (8th day); for Bilirubin, Initial, mean / Creatinine, Initial, mean / Serum enzymes SGOT, Initial, mean / Serum enzymes SGPT, Initial, mean / Serum enzymes aP, Initial, mean: before treatment (1st day)
Experimental: as §1

## CCOC(=O)C(C)(C)Oc1ccc(Cl)cc1 [Clofibrate, clofibrate]
[1]; rat, in vivo
  relative liver weight: increased
Serum lipoproteins; 100 mg/kg/day
  % Change compared with control, Protein LDL: +2%
  % Change compared with control, Protein VLDL: +5%
  % Change compared with control, Total cholesterol HDL: -26%
  % Change compared with control, Total cholesterol LDL: -31%
  % Change compared with control, Total cholesterol VLDL: -46%
  % Change compared with control, Triglycerides VLDL: +2%
  Cholesterol HDL/LDL Based on control: 1.08
  Cholesterol HDL/LDL: 4.03

## CC[C@H](C)C(=O)O[C@H]1C[C@@H](C)C=C2C=C[C@H](C)[C@H](CC[C@@H]3C[C@@H](O)CC(=O)O3)[C@H]21 [Lovastatin, lovastatin]
[2]
  IC50: 23 nM
[1]; 10 mg/kg/day
  % Change from control, Body weight after: +4%
  % Change from control, rel. feed consumption after: +8%
[1]; 50 mg/kg/day
  % Change from control, Body weight after: 0%
  % Change from control, rel. feed consumption after: +4%
[1]; 300 mg/kg/day
  % Change from control, Body weight after: +1%
  % Change from control, rel. feed consumption after: +1%
[3]; 10 mg/kg/day
  Bilirubin, Final, mean: 2.7 µmol/L
  Creatinine, Final, mean: 65 µmol/L
  Serum enzymes SGOT, Final, mean: 59 U/L
  Serum enzymes SGPT, Final, mean: 25 U/L
  Serum enzymes aP, Final, mean: 302 U/L
  Bilirubin, Initial, mean: 3.8 µmol/L
  Creatinine, Initial, mean: 60 µmol/L
  Serum enzymes SGOT, Initial, mean: 42 U/L
  Serum enzymes SGPT, Initial, mean: 31 U/L
  Serum enzymes aP, Initial, mean: 409 U/L
[3]; 50 mg/kg/day
  Bilirubin, Final, mean: 2.5 µmol/L
  Creatinine, Final, mean: 62 µmol/L
  Serum enzymes SGOT, Final, mean: 89 U/L
  Serum enzymes SGPT, Final, mean: 46 U/L
  Serum enzymes aP, Final, mean: 324 U/L
  Bilirubin, Initial, mean: 2.9 µmol/L
  Creatinine, Initial, mean: 60 µmol/L
  Serum enzymes SGOT, Initial, mean: 38 U/L
  Serum enzymes SGPT, Initial, mean: 31 U/L
  Serum enzymes aP, Initial, mean: 355 U/L
[3]; 300 mg/kg/day
  Bilirubin, Final, mean: 2.9 µmol/L
  Creatinine, Final, mean: 61 µmol/L
  Serum enzymes SGOT, Final, mean: 107 U/L
  Serum enzymes SGPT, Final, mean: 44 U/L
  Serum enzymes aP, Final, mean: 369 U/L
  Bilirubin, Initial, mean: 2.7 µmol/L
  Creatinine, Initial, mean: 64 µmol/L
  Serum enzymes SGOT, Initial, mean: 59 U/L
  Serum enzymes SGPT, Initial, mean: 32 U/L
  Serum enzymes aP, Initial, mean: 386 U/L
[3]; rat
  transaminase SGOT change: dose-dependent and distinctly pathological change
Serum lipoproteins; 10 mg/kg/day
  % Change compared with control, Protein LDL: -16%
  % Change compared with control, Protein VLDL: -22%
  % Change compared with control, Total cholesterol HDL: -14%
  % Change compared with control, Total cholesterol LDL: -2%
  % Change compared with control, Total cholesterol VLDL: -32%
  % Change compared with control, Triglycerides VLDL: -15%
  Cholesterol HDL/LDL Based on control: 0.89
  Cholesterol HDL/LDL: 3.32
Serum lipoproteins; 50 mg/kg/day
  % Change compared with control, Protein LDL: -19%
  % Change compared with control, Protein VLDL: -40%
  % Change compared with control, Total cholesterol HDL: -15%
  % Change compared with control, Total cholesterol LDL: -26%
  % Change compared with control, Total cholesterol VLDL: -52%
  % Change compared with control, Triglycerides VLDL: -38%
  Cholesterol HDL/LDL Based on control: 1.14
  Cholesterol HDL/LDL: 4.29
Serum lipoproteins; 300 mg/kg/day
  % Change compared with control, Protein LDL: +5%
  % Change compared with control, Protein VLDL: -37%
  % Change compared with control, Total cholesterol HDL: -9%
  % Change compared with control, Total cholesterol LDL: +3%
  % Change compared with control, Total cholesterol VLDL: -49%
  % Change compared with control, Triglycerides VLDL: -34%
  Cholesterol HDL/LDL Based on control: 0.89
  Cholesterol HDL/LDL: 3.33
Serum lipoproteins; rat
  effect on LDL-cholesterol compared with the compound according to the invention: distinctly inferior
  effect on VLDL and HDL compared with the compound according to the invention: about identical
